Here are results for 14 compounds from patent US9409952B2, “Peptide-compound cyclization method” (Chugai Seiyaku Kabushiki Kaisha, priority 2011, dated 2016).

Structures are written as SMILES. Positions of bridges follow the written chain, without caps; N, C: chain ends. Non-standard residues stand in square brackets, D forms with d. Residues, ends and D or L forms follow the SMILES beside them. *: point of attachment. NMeF = CN[C@@H](Cc1ccccc1)C(=O)O; NMeI = CC[C@H](C)[C@H](NC)C(=O)O; NMeL = CN[C@@H](CC(C)C)C(=O)O; NMeV = CN[C@H](C(=O)O)C(C)C; NMeA = CN[C@@H](C)C(=O)O; Piperidide = C1CCN(*)CC1; Sar = CNCC(=O)O

A short description of the first data set: Metabolic stability in human hepatic microsome. It is filed as in vitro ADME. The conditions noted are these: human, microsomes, CL NADPH(+).
The compound `CC[C@H](C)[C@@H]1NC(=O)[C@H](Cc2ccccc2)NC(=O)[C@@H]2CCCN2C(=O)[C@H](CC(C)C)N(C)C(=O)[C@H](Cc2ccccc2)NC(=O)[C@H](CC(C)C)NC(=O)[C@H]([C@@H](C)O)NC(=O)[C@H](C)N(C)C(=O)[C@H](C(C)C)NC(=O)[C@H](C)NC(=O)C[C@@H](C(=O)N2CCCCC2)NC(=O)[C@H](CC(C)C)NC(=O)CN(C)C1=O` [DP-21] (AV[NMeA]TLF[NMeL]PFI[Sar]LD-Piperidide; lactam N-13) gave a microsomal CLint of 25 µL/min/mg.

The same data set, now with this note: human, microsomes, pH 7.4, CL NADPH(+).
As to `CC[C@H](C)[C@@H]1NC(=O)[C@H](Cc2ccccc2)N(C)C(=O)[C@H](Cc2ccccc2)N(C)C(=O)[C@H](CC(C)C)N(C)C(=O)[C@H](CC(C)C)NC(=O)[C@H](CC(C)C)N(C)C(=O)[C@H](C)N(C)C(=O)[C@H]([C@@H](C)O)NC(=O)[C@H](C)NC(=O)C[C@@H](C(=O)N2CCCCC2)NC(=O)[C@H](C(C)C)N(C)C(=O)[C@@H]2CCCN2C1=O` [DP-12] (AT[NMeA][NMeL]L[NMeL][NMeF][NMeF]IP[NMeV]D-Piperidide; lactam N-12), the microsomal CLint at 1 uM was 32 µL/min/mg. On the same count and under the same terms, in the case of `CC[C@H](C)[C@@H]1NC(=O)[C@H](C)NC(=O)C[C@@H](C(=O)N2CCCCC2)NC(=O)[C@H](Cc2ccccc2)NC(=O)[C@H](C(C)C)NC(=O)[C@H](CC(C)C)NC(=O)[C@H](C)NC(=O)[C@H](Cc2ccccc2)N(C)C(=O)[C@H]([C@@H](C)O)NC(=O)[C@H](CC(C)C)NC(=O)[C@H](CC(C)C)N(C)C1=O` [DP-13] (AI[NMeL]LT[NMeF]ALVFD-Piperidide; lactam N-11) it was 66 µL/min/mg. On the same count and under the same terms, in the case of `CC[C@H](C)[C@@H]1NC(=O)[C@H](Cc2ccccc2)N(C)C(=O)[C@H](Cc2ccccc2)NC(=O)[C@H](C(C)C)N(C)C(=O)[C@H](CC(C)C)N(C)C(=O)[C@H](CC(C)C)NC(=O)[C@H](C)NC(=O)C[C@@H](C(=O)N2CCCCC2)NC(=O)[C@H]([C@@H](C)O)NC(=O)CNC(=O)[C@@H]2CCCN2C1=O` [DP-14] (AL[NMeL][NMeV]F[NMeF]IPGTD-Piperidide; lactam N-11) it was 57 µL/min/mg. The same measure, in the same setting: under `CC[C@H](C)[C@H]1C(=O)N2CCC[C@H]2C(=O)N(C)CC(=O)N[C@@H]([C@@H](C)O)C(=O)N[C@H](C(=O)N2CCCCC2)CC(=O)N[C@@H](C)C(=O)N[C@@H](C(C)C)C(=O)N(C)[C@@H](CC(C)C)C(=O)N(C)[C@@H](CC(C)C)C(=O)N(C)[C@@H](Cc2ccccc2)C(=O)N[C@@H](Cc2ccccc2)C(=O)N1C` [DP-15] (AV[NMeL][NMeL][NMeF]F[NMeI]P[Sar]TD-Piperidide; lactam N-11) stands 34 µL/min/mg. Regarding `CC[C@H](C)[C@@H]1NC(=O)[C@H](Cc2ccccc2)NC(=O)[C@H](C)NC(=O)C[C@@H](C(=O)N2CCCCC2)NC(=O)[C@H](CC(C)C)NC(=O)[C@H](CC(C)C)NC(=O)[C@H](C(C)C)NC(=O)[C@H](C)N(C)C(=O)[C@H](Cc2ccccc2)NC(=O)CNC(=O)[C@H]([C@@H](C)O)NC(=O)[C@H](CC(C)C)NC(=O)[C@@H]2CCCN2C1=O` [DP-19] (AFIPLTGF[NMeA]VLLD-Piperidide; lactam N-13), the microsomal CLint at 1 uM is 80 µL/min/mg. The same measure, in the same setting: under `CC[C@H](C)[C@@H]1NC(=O)[C@H](C)NC(=O)[C@H](CC(C)C)N(C)C(=O)[C@H](CC(C)C)NC(=O)[C@H](Cc2ccccc2)NC(=O)[C@H](C(C)C)NC(=O)[C@@H]2CCCN2C(=O)[C@H](CC(C)C)NC(=O)[C@H](Cc2ccccc2)N(C)C(=O)[C@H]([C@@H](C)O)NC(=O)CNC(=O)[C@H](C)NC(=O)C[C@@H](C(=O)N2CCCCC2)NC1=O` [DP-20] (AGT[NMeF]LPVFL[NMeL]AID-Piperidide; lactam N-13) stands 97 µL/min/mg. On the same count and under the same terms, under `CC(C)C[C@@H]1NC(=O)[C@H](CC(C)C)N(C)C(=O)[C@H](C)N(C)C(=O)[C@H](C(C)C)NC(=O)[C@H](Cc2ccccc2)NC(=O)CNC(=O)[C@H]([C@@H](C)O)NC(=O)[C@H](CC(C)C)NC(=O)[C@@H]2CCCN2C(=O)[C@H](Cc2ccccc2)NC(=O)[C@H](C)NC(=O)C[C@@H](C(=O)N2CCCCC2)NC1=O` [DP-23] (AFPLTGFV[NMeA][NMeL]LD-Piperidide; lactam N-12) stands 105 µL/min/mg; under `CC[C@H](C)[C@@H]1NC(=O)[C@H](Cc2ccccc2)N(C)C(=O)[C@H](Cc2ccccc2)NC(=O)[C@H](CC(C)C)NC(=O)[C@H](CC(C)C)N(C)C(=O)[C@H](C)N(C)C(=O)[C@H](C(C)C)NC(=O)[C@H](C)NC(=O)C[C@@H](C(=O)N2CCCCC2)NC(=O)[C@H](CC(C)C)N(C)C(=O)[C@H]([C@@H](C)O)NC(=O)[C@@H]2CCCN2C1=O` [DP-25] (AV[NMeA][NMeL]LF[NMeF]IPT[NMeL]D-Piperidide; lactam N-12), 24 µL/min/mg.

With `CC[C@H](C)[C@H]1C(=O)N[C@@H](Cc2ccccc2)C(=O)N(C)[C@@H](Cc2ccccc2)C(=O)N[C@@H]([C@@H](C)O)C(=O)N2CCC[C@H]2C(=O)N[C@@H](CC(C)C)C(=O)N[C@H](C(=O)N2CCCCC2)CC(=O)N[C@@H](C)C(=O)NCC(=O)N(C)[C@@H](C(C)C)C(=O)N(C)[C@@H](CC(C)C)C(=O)N[C@@H](C)C(=O)N1C` [DP-26] (AG[NMeV][NMeL]A[NMeI]F[NMeF]TPLD-Piperidide; lactam N-12), the microsomal CLint at 1 uM is 62 µL/min/mg. Still for that read-out and setting: in the case of `CC[C@H](C)[C@@H]1NC(=O)[C@H](C)NC(=O)C[C@@H](C(=O)N2CCCCC2)NC(=O)[C@H](C(C)C)NC(=O)[C@H](Cc2ccccc2)N(C)C(=O)[C@H](CC(C)C)NC(=O)[C@H]([C@@H](C)O)NC(=O)[C@H](Cc2ccccc2)NC(=O)[C@H](C)NC(=O)CN(C)C(=O)[C@H](CC(C)C)NC1=O` [DP-28] (AIL[Sar]AFTL[NMeF]VD-Piperidide; lactam N-11) it was 113 µL/min/mg; in that of `CC[C@H](C)[C@@H]1NC(=O)[C@H](CC(C)C)N(C)C(=O)CNC(=O)[C@H](C)NC(=O)C[C@@H](C(=O)N2CCCCC2)NC(=O)[C@@H]2CCCN2C(=O)[C@H](CC(C)C)NC(=O)[C@H](Cc2ccccc2)NC(=O)[C@H]([C@@H](C)O)NC(=O)[C@H](Cc2ccccc2)N(C)C(=O)[C@H](C)N(C)C1=O` [DP-30] (AG[NMeL]I[NMeA][NMeF]TFLPD-Piperidide; lactam N-11), 63 µL/min/mg.

Still in this data set, the particulars now being: microsomes, pH 7.4; human hepatic microsome, NADPH(+); read-out: CL NADPH(+).
For the compound `CC[C@H](C)[C@H]1C(=O)N[C@H](C(=O)N2CCCCC2)CC(=O)N[C@@H](C)C(=O)N[C@@H]([C@@H](C)O)C(=O)N(C)[C@@H](Cc2ccccc2)C(=O)N[C@@H](CC(C)C)C(=O)N2CCC[C@H]2C(=O)N[C@@H](C(C)C)C(=O)N[C@@H](Cc2ccccc2)C(=O)N(C)CC(=O)N[C@@H](CC(C)C)C(=O)N[C@@H](C)C(=O)N1C` [DP-24] (AT[NMeF]LPVF[Sar]LA[NMeI]D-Piperidide; lactam N-12), the microsomal CLint at 1 uM turned out to be 52 µL/min/mg. Still for that read-out and setting: under `CC[C@H](C)[C@H]1C(=O)N[C@H](C(=O)N2CCCCC2)CC(=O)N[C@@H](C)C(=O)N[C@@H]([C@@H](C)O)C(=O)N(C)[C@@H](Cc2ccccc2)C(=O)N[C@@H](CC(C)C)C(=O)N2CCC[C@H]2C(=O)N(C)[C@@H](C(C)C)C(=O)N[C@@H](Cc2ccccc2)C(=O)N(C)CC(=O)N(C)[C@@H](CC(C)C)C(=O)N[C@@H](C)C(=O)N1C` [DP-27] (AT[NMeF]LP[NMeV]F[Sar][NMeL]A[NMeI]D-Piperidide; lactam N-12) stands 31 µL/min/mg.
